Laboratory results as given in PMC9428149, “Tackling recalcitrant Pseudomonas aeruginosa infections in critical illness via anti-virulence monotherapy” (Nature Communications, 2022).
Where “and” joins values, the source holds several entries; their conditions need not be identical. Identical values can stand only once. Entries after “also recorded” stand apart in the source; their conditions may differ. Like-named read-outs stand apart in the source and are kept apart here.

Experiments:
[1] = molecular target: MvfR binding to the pqsA promoter (Pseudomonas aeruginosa, UniProt Q9I4X0); format: cell-based; settings: for MvfR binding to the pqsA promoter (ChIP-qPCR): D88 +, Figure 5c, replicates
MvfR binding to the pqsA promoter, sequence (Q9I4X0 whole entry, looked up): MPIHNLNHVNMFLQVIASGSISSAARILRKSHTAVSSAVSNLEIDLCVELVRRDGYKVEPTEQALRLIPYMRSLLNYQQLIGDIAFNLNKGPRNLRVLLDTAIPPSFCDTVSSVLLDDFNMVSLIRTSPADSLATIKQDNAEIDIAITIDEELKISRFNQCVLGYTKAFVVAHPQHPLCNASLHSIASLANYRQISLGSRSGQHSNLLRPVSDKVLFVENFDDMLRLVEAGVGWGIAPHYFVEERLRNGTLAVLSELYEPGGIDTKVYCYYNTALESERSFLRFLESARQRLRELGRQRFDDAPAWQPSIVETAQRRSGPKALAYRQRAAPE

[2] = system: A549 cells; test: MTT cytotoxicity, A549; format: cell-based, human; settings: for Cell viability (MTT) relative to Vehicle: A549, replicates
Protocol: For the determination of cytotoxicity, cell viability was determined using the MTT (3-[4, 5-dimethyl-2-thiazolyl]−2, 5-diphenyl-2H-tetrazolium bromide) assay in the presence and absence of compound (D88). […] The cells were then treated with either vehicle or different concentrations of D88 (10, 20, 30, 40, and 50 µM) for 24 h at 37 °C and 5% CO2. After 24 h, the cells were washed three times with PBS and were incubated in 200 μL PBS containing 200 μg mL^−1 MTT (Sigma-Aldrich) in a 96-well culture plate for 2 h at 37 °C and 5% CO2. Following incubation, the supernatant was discarded, and the cells were lysed in 95% isopropanol and 5% formic acid.

[3] = system: MvfR-regulated small molecules at the site of infection; test: Production of HHQ, PQS, HQNO, 2-AA and DHQ in vivo; set-up: species or system mouse
Protocol: For the group supplemented with our MvfR-inhibiting compound (D88), mice received five subcutaneous injections (at the nape of the animals) at 1, 4, 8, 12, and 18 h post-BI, at a dose of 24 mg kg^−1 body weight. D88 was prepared in a 40% Captisol vehicle. Control groups received equivalent doses of 40% Captisol vehicle.
To measure the production of HHQ, PQS, HQNO, 2-AA, and DHQ in vivo, underlying muscle from the site of infection was collected at 12 h and 22 h post-infection, and the small molecules were extracted by homogenizing them immediately in 1 mL sterile PBS as above. A 500 μL of sample was mixed with an equal volume of methanol containing 10 ppm of HHQ-D4 and 20 ppm of PQS-D4, spun down for 5 min, and 700 μL of supernatant were put in glass vials. Liquid chromatography-mass spectrophotometry ([…]) analysis was performed as described above and in[66].

[4] = D88 Treated 12h, site of infection, single mice, Figure 6d
[5] = D88 Treated 22h, site of infection, single mice, Figure 6d

Structure (SMILES): N#Cc1ccc(NC(=O)C(F)C(=O)Nc2ccc(Oc3ccccc3)cc2)cc1 (stereo not shown) [D88]
- reduction of MvfR binding to the pqs operon promoter ([1]; 50 µM D88, vs control): ~ 80%
- PQS-mediated increase in MvfR binding ([1]; D88 50 µM + PQS 38 µM): significantly decreased
- MvfR binding to the pqsA promoter (ChIP-qPCR) ([1]; PQS +): 4.271 and 2.782 and 2.485
- MvfR binding to the pqsA promoter (ChIP-qPCR) ([1]; PQS −): 1.532 and 0.7796 and 1.309
- cell viability ([2]; A549, 10-50 µM, 24 h): None of the used compound concentrations exerted any cytotoxic effect; also recorded: no significant changes in cell viability
- Cell viability (MTT) relative to Vehicle ([2]; 10 μM): 104.92 and 112.79 and 105.24 and 97.24 and 88.17
- Cell viability (MTT) relative to Vehicle ([2]; 20 μM): 104.85 and 98.03 and 95.15 and 98.27 and 93.91
- Cell viability (MTT) relative to Vehicle ([2]; 30 μM): 88.06 and 91.37 and 110.19 and 88.29 and 118.10
- Cell viability (MTT) relative to Vehicle ([2]; 40 μM): 104.24 and 86.59 and 104.97 and 101.16 and 96.70
- Cell viability (MTT) relative to Vehicle ([2]; 50 μM): 95.15 and 105.16 and 99.77 and 98.12
- levels of HHQ, PQS, HQNO, 2-AA and DHQ at the site of infection ([3]; 12 h post-infection): strong inhibitory efficacy
- levels of HHQ, PQS, HQNO, 2-AA and DHQ at the site of infection ([3]; 22 h post-infection): complete abolishment
- DHQ [3, 4]: 0.0000
- HQNO [3, 4]: 0.0000
- 2-AA [3, 5]: 0.0000
- DHQ [3, 5]: 0.0000
